Converted amounts (≈) assume the structure as drawn. A value given as a limit tells only on which side of the number the result lay.

Holding throughout (assay): MIC, engineered isogenic strain
What all share (assay type): cell-based, P. aeruginosa

The subject of test [1] is PAM4821 producing CTX-M-25. Conditions: CTX-M-25, class A; BLIs at fixed 4 µg/mL.
For a further test, the system named is PAM4801 producing GES-20. Conditions: GES-20, class A; BLIs at fixed 4 µg/mL.
Another test deals with PAM4135 producing KPC-2. The settings on record: KPC-2, class A; BLIs at fixed 4 µg/mL.
Another test has as its system PAM4689 producing KPC-3. Conditions: KPC-3, class A; BLIs at fixed 4 µg/mL.
Another test relates to PAM4874 producing SHV-12. Conditions: SHV-12, class A; BLIs at fixed 4 µg/mL.
Another test deals with PAM4744 producing SME-2. Conditions: SME-2, class A; BLIs at fixed 4 µg/mL.
Another test concerns PAM4186 producing CMY-2. Conditions: CMY-2, class C; BLIs at fixed 4 µg/mL.
The next test deals with PAM4827 producing OXA-1. Conditions: OXA-1, class D; BLIs at fixed 4 µg/mL.
A further test concerns PAM4217 producing OXA-48. Conditions: OXA-48, class D; BLIs at fixed 4 µg/mL.
The next test has as its system PAM4795 producing VIM-1. Conditions: VIM-1, class B; BLIs at fixed 4 µg/mL.
The subject of another test is PAM4798 producing VIM-2. The settings on record: VIM-2, class B; BLIs at fixed 4 µg/mL.
In a further test the test system is PAM4198 producing IMP-15. The settings on record: IMP-15, class B; BLIs at fixed 4 µg/mL.

What is called MIC is the least concentration at which growth counts as inhibited. A high value points to a need for much substance. With `CO/N=C(\C(=O)N[C@@H]1C(=O)N2C(C(=O)[O-])=C(C[N+]3(C)CCCC3)CS[C@H]12)c1csc(N)n1` [FEP, cefepime], the minimum inhibitory concentration (MIC) in test [1] is over 64 µg/mL; with PAM4801 producing GES-20, 2 µg/mL (≈ 4.16 µM); with PAM4135 producing KPC-2 it was over 64 µg/mL; against PAM4689 producing KPC-3, over 64 µg/mL; against PAM4874 producing SHV-12, 64 µg/mL (≈ 133 µM); against PAM4744 producing SME-2 it was 0.5 µg/mL (≈ 1.04 µM). The MIC in the test with PAM4186 producing CMY-2 was 1 µg/mL (≈ 2.08 µM); with PAM4827 producing OXA-1 it was 1 µg/mL (≈ 2.08 µM); in the test on PAM4217 producing OXA-48, 0.5 µg/mL (≈ 1.04 µM); in the test on PAM4795 producing VIM-1, over 64 µg/mL; with PAM4798 producing VIM-2 it was 8 µg/mL (≈ 16.6 µM); in the test with PAM4198 producing IMP-15, 16 µg/mL (≈ 33.3 µM).
Take `C[C@@H](O)[C@H]1C(=O)N2C(C(=O)O)=C(S[C@@H]3CN[C@H](C(=O)N(C)C)C3)[C@H](C)[C@H]12` [MEM, meropenem]: the MIC in [1] is 0.5 µg/mL (≈ 1.3 µM); against PAM4801 producing GES-20 it was 8 µg/mL (≈ 20.9 µM); in the test on PAM4135 producing KPC-2 it was 32 µg/mL (≈ 83.4 µM); with PAM4689 producing KPC-3, 64 µg/mL (≈ 167 µM); in the test with PAM4874 producing SHV-12 it was 0.25 µg/mL (≈ 0.652 µM); with PAM4744 producing SME-2 it was 8 µg/mL (≈ 20.9 µM). In addition, the MIC is 0.25 µg/mL (≈ 0.652 µM) against PAM4186 producing CMY-2; at most 0.06 µg/mL with PAM4827 producing OXA-1; 4 µg/mL (≈ 10.4 µM) in the test on PAM4217 producing OXA-48; 4 µg/mL (≈ 10.4 µM) in the test with PAM4795 producing VIM-1; 8 µg/mL (≈ 20.9 µM) with PAM4798 producing VIM-2; 1 µg/mL (≈ 2.61 µM) with PAM4198 producing IMP-15.

(Values after paper PMC10648875 (Antimicrobial Agents and Chemotherapy, 2023).)
